Results from patent US20100056516A1 (priority 2006, published 2010).
pIC50: −log10 of the molar value.

How the values were obtained:
HXB2 virus = test: microbe, parasite or virus in culture; format: cell-based, HIV; settings: Human immunodeficiency virus 1, HXB2, HeLaP4-2, read-out: antiviral IC50 (SCIA-B)
Procedure, shortened: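 HXB2 virus used to infect HeLa P4-2 cells in a single-cycle format; inhibition of acute infection is measured.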

HIV integrase = HIV integrase (Human immunodeficiency virus type 1 group M subtype B, UniProt P04585); test: integrase strand transfer assay (STA); format: biochemical; settings: integrase strand transfer; read-out: IC50 in the STA assay

Row | Compound | pIC50 (HXB2 virus) | pIC50 (HIV integrase)
1 | O=c1cc(-c2cccc(CO)c2)c2cccnc2n1O [Example 183, 1-hydroxy-4-[3-(hydroxymethyl)phenyl]-1,8-naphthyridin-2(1H)-one] | > 4.00 | > 4.30
2 | O=c1cc(-c2ccc3ncccc3c2)c2cccnc2n1O [Example 184, 1-hydroxy-4-quinolin-6-yl-1,8-naphthyridin-2(1H)-one] | > 4.00 | > 4.30
3 | COc1ccc(-c2ccncc2)cc1-c1cc(=O)n(O)c2ncccc12 [Example 185, 1-hydroxy-4-(2-methoxy-5-pyridin-4-ylphenyl)-1,8-naphthyridin-2(1H)-one] | > 4.00 | > 4.30
4 | O=c1cc(-c2ccc3cc[nH]c3c2)c2cccnc2n1O [Example 186, 1-hydroxy-4-(1H-indol-6-yl)-1,8-naphthyridin-2(1H)-one] | > 4.00 | > 4.30
5 | COC(=O)CCc1cccc(-c2cccc(-c3cc(=O)n(O)c4ncccc34)c2)c1 [Example 187, methyl-3-[3′-(1-hydroxy-2-oxo-1,2-dihydro-1,8-naphthyridin-4-yl)biphenyl-3-yl]-propanoate] | > 4.00 | > 4.30
6 | O=c1cc(-c2ccc(-c3ccn[nH]3)cc2)c2cccnc2n1O [Example 188, 1-hydroxy-4-[4-(1H-pyrazol-5-yl)phenyl]-1,8-naphthyridin-2(1H)-one] | > 4.00 | > 4.30
7 | CS(=O)(=O)NCc1ccc(-c2cc(=O)n(O)c3ncccc23)cc1 [Example 189, N-[4-(1-hydroxy-2-oxo-1,2-dihydro-1,8-naphthyridin-4-yl)benzyl]methanesulfo-namide] | > 4.00 | > 4.30
8 | NCc1cccc(-c2cncc(-c3cc(=O)n(O)c4ncccc34)c2)c1 [Example 190, 4-{5-[3-(aminomethyl)phenyl]pyridin-3-yl}-1-hydroxy-1,8-naphthyridin-2(1H)one] | > 4.00 | > 4.30
9 | CC(=O)c1cccc(-c2cccc(-c3cc(=O)n(O)c4ncccc34)c2)c1 [Example 191, 4-(3′-acetylbiphenyl-3-yl)-1-hydroxy-1,8-naphthyridin-2(1H)-one] | > 4.00 | > 4.30
10 | NS(=O)(=O)c1cccc(-c2cc(=O)n(O)c3ncccc23)c1 [Example 192, 3-(1-hydroxy-2-oxo-1,2-dihydro-1,8-naphthyridin-4-yl)benzenesulfonamide] | > 4.00 | > 4.30
11 | CNS(=O)(=O)c1cccc(-c2cc(=O)n(O)c3ncccc23)c1 [Example 193, 3-(1-hydroxy-2-oxo-1,2-dihydro-1,8-naphthyridin-4-yl)-N-methylbenzenesulfona-mide] | > 4.00 | > 4.30
12 | CC(=O)Nc1cccc(-c2cc(=O)n(O)c3ncccc23)c1 [Example 194, N-[3-(1-hydroxy-2-oxo-1,2-dihydro-1,8-naphthyridin-4-yl)phenyl]acetamide] | > 4.00 | > 4.30
13 | O=C(c1cccc(-c2cc(=O)n(O)c3ncccc23)c1)N1CCCC1 [Example 195, 1-hydroxy-4-[3-(pyrrolidin-1-ylcarbonyl)phenyl]-1,8-naphthyridin-2(1H)-one] | > 4.00 | > 4.30
14 | NC(=O)c1cccc(-c2cc(=O)n(O)c3ncccc23)c1 [Example 196, 3-(1-hydroxy-2-oxo-1,2-dihydro-1,8-naphthyridin-4-yl)benzamide] | > 4.00 | > 4.30
15 | O=c1cc(-c2cncnc2)c2cccnc2n1O [Example 197, 1-hydroxy-4-pyrimidin-5-yl-1,8-naphthyridin-2(1H)-one] | > 4.00 | > 4.30
16 | O=c1cc(-c2ccn[nH]2)c2cccnc2n1O [Example 198, 1-hydroxy-4-(1H-pyrazol-5-yl)-1,8-naphthyridin-2(1H)-one] | > 4.00 | > 4.30
17 | CS(=O)(=O)c1cccc(-c2cc(=O)n(O)c3ncccc23)c1 [Example 199, 1-hydroxy-4-[3-(methylsulfonyl)phenyl]-1,8-naphthyridin-2(1H)-one] | > 4.00 | > 4.30
18 | O=c1cc(-c2ccc(NCCN3CCOCC3)nc2)c2cccnc2n1O [Example 200, 1-hydroxy-4-{6-[(2-morpholin-4-ylethyl)amino]pyridin-3-yl}-1,8-naphthyridin-2(1H)-one] | > 4.00 | > 4.30
19 | CS(=O)(=O)Nc1ccccc1-c1cc(=O)n(O)c2ncccc12 [Example 201, N-[2-(1-hydroxy-2-oxo-1,2-dihydro-1,8-naphthyridin-4-yl)phenyl]methanesulfo-namide] | > 4.00 | > 4.30
20 | N#Cc1cccc(-c2cccc(-c3cc(=O)n(O)c4ncccc34)c2)c1 [Example 202, 3′-(1-hydroxy-2-oxo-1,2-dihydro-1,8-naphthyridin-4-yl)biphenyl-3-carbonitrile] | > 4.00 | > 4.30

Row | Compound | pIC50 (HXB2 virus) | pIC50 (HIV integrase)
21 | O=c1cc(-c2ccncc2)c2cccnc2n1O [Example 203, 1-hydroxy-4-pyridin-4-yl-1,8-naphthyridin-2(1H)-one] | > 4.00 | > 4.30
22 | NCc1cccc(-c2cccc(-c3cc(=O)n(O)c4ncccc34)c2)c1 [Example 204, 4-[3′-(aminomethyl)biphenyl-3-yl]-1-hydroxy-1,8-naphthyridin-2(1H)-one] | > 4.00 | > 4.30
23 | O=c1cc(-c2cccc(-c3cccc(CNCc4ccccc4)c3)c2)c2cccnc2n1O [Example 205, 4-{3′-[(benzylamino)methyl]biphenyl-3-yl}-1-hydroxy-1,8-naphthyridin-2(H)-one] | > 4.00 | > 4.30
24 | O=c1cc(-c2cccc(CN3CCN(Cc4ccccc4)CC3)c2)c2cccnc2n1O [Example 206, 4-{3-[(4-benzyl-1-piperazinyl)methyl]phenyl}-1-hydroxy-1,8-naphthyridin-2(1H-one)] | > 4.00 | > 4.30
25 | O=c1cc(-c2cccc(CN3CCN(C(c4ccccc4)c4ccc(Cl)cc4)CC3)c2)c2cccnc2n1O (centres unmarked) [Example 207] | > 4.00 | > 4.30
26 | O=C(CN1CCN(Cc2cccc(-c3cc(=O)n(O)c4ncccc34)c2)CC1)N1CCCC1 [Example 208, 1-hydroxy-4-[3-({4-[2-oxo-2-(1-pyrrolidinyl)ethyl]-1-piperazinyl}methyl)phenyl]-1,8-naphthyridin-2(1H-one)] | > 4.00 | > 4.30
27 | CN(C)C(=O)CNCc1cccc(-c2cc(=O)n(O)c3ncccc23)c1 [Example 209, 2-{[3-(1-hydroxy-2-oxo-1,2-dihydro-1,8-naphthyridin-4-yl)benzyl]amino}-N,N-dimethylacetamide] | > 4.00 | > 4.30
28 | CC(c1ccccc1)N1CCN(Cc2cccc(-c3cc(=O)n(O)c4ncccc34)c2)CC1 (centres unmarked) [Example 210, 1-hydroxy-4-(3-{[4-(1-phenylethyl)-1-piperazinyl]methyl}phenyl)-1,8-naphthyridin-2(1H-one)] | > 4.00 | > 4.30
29 | O=C(CN1CCN(Cc2cccc(-c3cc(=O)n(O)c4ncccc34)c2)CC1)N1CCOCC1 [Example 211, 1-hydroxy-4-[3-({4-[2-(4-morpholinyl)-2-oxoethyl]-1-piperazinyl}methyl)phenyl]-1,8-naphthyridin-2(1H-one)] | > 4.00 | > 4.30
30 | CN(C)CCCN1CCN(Cc2cccc(-c3cc(=O)n(O)c4ncccc34)c2)CC1 [Example 212, 4-[3-({4-[3-(dimethylamino)propyl]-1-piperazinyl}methyl)phenyl]-1-hydroxy-1,8-naphthyridin-2(1H-one)] | > 4.00 | > 4.30
31 | CC(=O)N1CCN(Cc2cccc(-c3cc(=O)n(O)c4ncccc34)c2)CC1 [Example 213, 4-{3-[(4-acetyl-1-piperazinyl)methyl]phenyl}-1-hydroxy-1,8-naphthyridin-2(1H-one)] | > 4.00 | > 4.30
32 | CN(C(=O)c1c(O)c2cccnc2n(O)c1=O)C1CCNC1 (centres unmarked) [Example 215, 1,4-Dihydroxy-N-methyl-2-oxo-N-pyrrolidin-3-yl-1,2-dihydro-1,8-naphthyridine-3-carboxamide] | > 4.00 | > 4.30
33 | CN1C(=O)c2c(c3cccnc3n(O)c2=O)NC1c1ccccc1 (centres unmarked) [Example 216, 6-Hydroxy-3-methyl-2-phenyl-2,3-dihydropyrimido[5,4-c]-1,8-naphthyridine-4,5(1H, 6H)-dione] | > 4.00 | > 4.30
34 | CN1C(=O)c2c(c3cccnc3n(O)c2=O)NC1c1ccccc1-c1ccccc1 (centres unmarked) [Example 217, 2-Biphenyl-2-yl-6-hydroxy-3-methyl-2,3-dihydropyrimido[5,4-c]-1,8-naphthyridine-4,5(1H, 6H)dione] | > 4.00 | > 4.30
35 | CN1C(=O)c2c(c3cccnc3n(O)c2=O)NC1c1cccc(Oc2ccccc2)c1 (centres unmarked) [Example 218, 6-Hydroxy-3-methyl-2-(3-phenoxyphenyl)-2,3-dihydropyrimido[5,4-c]-1,8-naphthyridine-4,5(1H, 6H)dione] | > 4.00 | > 4.30
36 | CN1C(=O)c2c(c3cccnc3n(O)c2=O)NC1c1cccc(CN2CCOCC2)c1 (centres unmarked) [Example 219, 6-Hydroxy-3-methyl-2-[3-(morpholin-4-ylmethyl)phenyl]-2,3-dihydropyrimido[5,4-c]-1,8-naphthyridine-4,5(1H, 6H)dione] | > 4.00 | > 4.30
37 | CN1C(=O)c2c(c3cccnc3n(O)c2=O)NC1c1cccc(CN)c1 (centres unmarked) [Example 220, 2-[3-(Aminomethyl)phenyl]-6-hydroxy-3-methyl-2,3-dihydropyrimido[5,4-c]-1,8-naphthyridine-4,5(1H, 6H)dione] | > 4.00 | > 4.30
38 | CNC(=O)c1c(N)c2cccnc2n(O)c1=O [Example 221, 4-Amino-1-hydroxy-N-methyl-2-oxo-1,2-dihydro-1,8-naphthyridine-3-carboxamide] | > 4.00 | > 4.30
39 | CCOC(=O)Cc1c(O)c2cccnc2n(O)c1=O [Example 223, Ethyl (1,4-dihydroxy-2-oxo-1,2-dihydro-1,8-naphthyridin-3-yl)acetate] | > 4.00 | > 4.30
40 | NCc1cccc(CNC(=O)Cc2c(O)c3cccnc3n(O)c2=O)c1 [Example 224] | > 4.00 | > 4.30
